{"source": "patent US20250295619A1", "about": "“Use of Salvianolic Acid E in the Preparation of Drugs Targeting Senescent Cells, Inhibiting Tumors or Extending Lifespan” (Shanghai Institute of Nutrition and Health, Chinese Academy …, priority 2024, published 2025)", "key": {"[1]": {"system": "PC3/PSC27 transplanted tumors", "experiment": "PC3/PSC27 xenograft tumor volume in NOD/SCID mice", "type": "in vivo, mouse", "settings": "for effect on tumor volume of chemotherapeutic drug combined with SAE: combination with SAE vs chemotherapeutic drug alone; for effect on tumors when combined with MIT: combination with MIT vs MIT alone", "procedure": "Every two weeks was a dosing cycle, and MIT (mitoxantrone) was intraperitoneally administered to the mice on the first day of the 3rd/5th/7th weeks. From the first day of the 5th week, the mice were intraperitoneally administered with SAE, […]. After the 8-week course of treatment, the mice were dissected for pathological identification and expression analysis.\nAll experimental mouse experiments were carried out in strict accordance with the relevant regulations of the Institutional Animal Care and Use Committee (IACUC), Shanghai Institutes for Biological Sciences, Chinese Academy of Sciences. Immuno-deficient mice (NOD-SCID mice, ICR) (body weight about 25 g) aged 6-8 weeks were used for animal experiments related to the present patent. Stromal cells PSC27 and epithelial cells PC3 were mixed at a predetermined ratio of 1:4, and each graft contained 1.25×10^6 cells for tissue remodeling. The xenograft tumors were implanted into mice by subcutaneous transplantation, and the animals were euthanized 8 weeks after the end of the transplantation surgery. Tumor volume was calculated according to the following formula: V=(π/6)×((1+w)/2)3 (V, volume; l, length; w, width).\n(§1) In a preclinical treatment trial, subcutaneously transplanted mice were fed with a standard experimental diet, after 2 weeks chemotherapy drugs mitoxantrone (MIT, dose: 0.2 mg/kg) and/or SAE (500 μl, dose: 10 mg/kg) via intraperitoneal administration. The time points were: the former was administrated on the first day of the 3rd, 5th and 7th weeks, and the latter was administrated on the first day of the 5th and 7th weeks. A total of 3 cycles of MIT administration were carried out throughout the course of treatment, and each cycle lasted for 2 weeks. After the course of treatment, mouse tumors were harvested for volume measurement and histological analysis. Each mouse cumulatively received 0.6 mg/kg body weight of MIT and 30 mg/kg body weight of SAE. In order to cause systemic expression of SASP factors induced by chemotherapy, MIT was administered to mice through intravenous infusion according to the above steps and sequence, but the dose was reduced to 0.1 mg/kg body weight/each time (the cumulative dose of MIT received in the whole course of treatment was 0.3 mg/kg body weight) to reduce drug-related toxicity. The chemotherapy experiment ended at the end of the 8th week, and the mice were dissected immediately after sacrifice, and the xenograft tumors were collected and used for pathological system analysis."}, "[2]": {"system": "senescent cells in tumor tissue", "experiment": "SA-β-Gal staining of tumor tissues of PC3/PSC27 tumor-bearing mice", "type": "in vivo, mouse", "settings": "MIT alone", "procedure": "Representative pictures after SA-β-Gal staining. Scale bar, 100 μm.\nas §1"}, "[3]": {"system": "SASP factors", "experiment": "LCM and qRT-PCR of SASP factors in mouse lesions", "type": "in vivo", "settings": "after MIT administration", "procedure": "The stromal cells and cancer cells were specifically separated by LCM technology, total RNA was prepared and used for SASP expression detection. ^, P>0.05; *, P<0.05; **, P<0.01.\nas §1, with “The chemotherapy experiment ended at the end of the 8th week, and the mice were dissected immediately after sacrifice, and the xenograft tumors were collected and used for pathological system analysis.” left out"}, "[4]": {"system": "PC3/PSC27 tumors", "experiment": "DNA damage and apoptosis in tumors of treated mice", "type": "in vivo, mouse", "settings": "single agent compared with placebo, 7 days after first SAE administration", "source_text": "To investigate mechanisms directly supporting this senescence-associated pattern with expression and reversal of SASP in MIT-administered mice, the inventors dissected tumors in animals treated with both drugs 7 days after the first SAE administration, and the time point of 7 days after administration was selected mainly because drug-resistant clones had not yet formed in cancer cells in the lesion at this time. […] As supporting evidence, when SAE was applied during treatment, caspase 3 cleavage activity was increased, which was a typical hallmark of apoptosis (FIG. 29)."}, "[5]": {"system": "PSC27", "experiment": "Caspase 3/7 apoptosis detection in senescent PSC27 cells (IncuCyte)", "type": "cell-based, human", "settings": "20 μM QVD-OPh, 200 μM SAE", "procedure": "PSC27 cells gradually entered the senescent stage after being treated with BLEO for 12 hours under culture conditions. 200 μM SAE was added to the medium of senescent cells starting from day 7, NucLight Rapid Red reagent was used to label the cells and caspase 3/7 reagent (IncuCyte) was used for apoptosis detection. Caspase 3/7 activity was detected every 4 hours (n=3).\nStatistical differences are obtained by two-way ANOVA (Turkey'test).\nPSC27 cells were plated in a 96-well dish, and the cells were induced to senescence under 50 μg/ml of BLEO treatment. SAE and ABT263 were added at concentrations of 200 μM and 1.25 μM, respectively. Cell culture medium was supplemented with Incucyte Nuclight fast Red Reagent (Essen Bioscience) and Incucyte C-3/7 Apoptosis Reagent (Essen Bioscience). Representative field of view was selected to take pictures."}, "[6]": {"system": "PSC27", "experiment": "BrdU and γH2AX immunofluorescence staining of PSC27 cells after bleomycin", "type": "cell-based, human", "settings": "PSC27 treated with bleomycin", "procedure": "(§2) To cause cell damage, 50 μg/mL bleomycin (bleomycin, BLEO) was added to the culture medium when PSC27 cells grew to 80% (abbreviated as PSC27-CTRL). After 12 hours of drug treatment, the cells were simply washed 3 times with PBS, left in the culture medium for 7-10 days, and then the subsequent experiments were performed.\nFor immunofluorescent staining, target cells were pre-seeded on a coverslip for at least 24 h after culture in dishes. After a brief wash, the cells were fixed with 4% paraformaldehyde in PBS for 8 min and blocked with 5% normal goat serum (NGS, Thermo Fisher) for 30 min. Mouse monoclonal antibody-anti-phospho-Histone H2A.X (Ser139) (clone JBW301, Millipore) and mouse monoclonal antibody-anti-BrdU (Cat #347580, BD Biosciences), and secondary antibody Alexa Fluor®488 (or 594)-conjugated F (ab′) 2 were sequentially added to the slides coated with the fixed cells. Nuclei were counterstained with 2 μg/ml of 4′, 6-diamidino-2-phenylindole (DAPI). The most representative image was selected from the three observation fields for data analysis and result display. FV1000 laser scanning confocal microscope (Olympus) was used to acquire confocal fluorescent images of cells."}, "[7]": {"system": "PSC27", "experiment": "SA-β-Gal staining of PSC27 cells (bleomycin-induced senescence, increasing SAE concentration)", "type": "cell-based, human", "settings": "PSC27 treated with bleomycin 50 μg/ml, vs control cells", "procedure": "The P value of positive proportion of cells in these experimental groups for SAE at the concentrations of 100 μM, 200 μM, 400 μM, 800 μM, 1600 μM, 2000 μM and 3000 μM are statistically significant compared with the data at 0 μM.\nas §2\nSenescence-associated B-galactosidase (SA-β-Gal) staining was performed following a previously reported procedure (Debacq-Chainiaux, et. al., 2009). Briefly, cells in culture dishes were washed with PBS and fixed at room temperature. Cells were fixed in 2% formaldehyde and 0.2% glutaraldehyde for 3 minutes. SA-β-Gal was used for staining with freshly prepared staining solution overnight at 37° C. Images were taken on the next day and the percentage of positive cells per unit area was calculated."}}, "note": "Entries after “also recorded” stand apart in the source; their conditions may differ."}
{"compound": "CC(=O)O[C@@]12CO[C@@H]1C[C@H](O)[C@@]1(C)C(=O)[C@H](O)C3=C(C)[C@@H](OC(=O)[C@H](O)[C@@H](NC(=O)OC(C)(C)C)c4ccccc4)C[C@@](O)([C@@H](OC(=O)c4ccccc4)[C@H]21)C3(C)C", "note": "[DOC, docetaxel]", "values": [{"measurement": "effect on tumor volume of chemotherapeutic drug combined with SAE", "setting": "[1]", "value": "no further tumor shrinkage"}, {"measurement": "tumor volume when chemotherapeutic drug used alone", "setting": "[1]", "value": "reduce the tumor volume"}]}
{"compound": "COc1cccc2c1C(=O)c1c(O)c3c(c(O)c1C2=O)C[C@@](O)(C(=O)CO)C[C@@H]3O[C@H]1C[C@H](N)[C@H](O)[C@H](C)O1", "note": "[DOX, doxorubicin]", "values": [{"measurement": "effect on tumor volume of chemotherapeutic drug combined with SAE", "setting": "[1]", "value": "roughly repeat the significant effect"}]}
{"compound": "O=C1c2c(O)ccc(O)c2C(=O)c2c(NCCNCCO)ccc(NCCNCCO)c21", "note": "[MIT, mitoxantrone]", "values": [{"measurement": "senescent cells in the tumor tissue after MIT administration", "setting": "[2]", "value": "induced the appearance of a large number of senescent cells"}, {"measurement": "reduction in tumor size compared to placebo-treated group", "setting": "[1]; single agent, end of 8 weeks", "value": 44.1, "unit": "%"}, {"measurement": "expression of SASP factors in lesions (mainly stromal cells)", "setting": "[3]", "value": "significantly increased; also recorded: significantly elevated expression"}, {"measurement": "degree of DNA damage and apoptosis", "setting": "[4]", "value": "significant increase"}]}
{"compound": "CC(C)[C@H](NC(=O)c1ccc2ccccc2n1)C(=O)N[C@@H](CC(=O)O)C(=O)COc1c(F)cccc1F", "note": "[QVD, reference compound]", "values": [{"measurement": "effect of pan-caspase inhibitor on killing of senescent cells by SAE", "setting": "[5]", "value": "could prevent the killing of senescent cells by SAE"}]}
{"compound": "O=C(/C=C/c1ccc(O/C(=C\\c2ccc(O)c(O)c2)C(=O)O)c(O)c1)OC(Cc1ccc(O)c(O)c1)C(=O)O", "note": "(stereo not shown) [SAI, salvianolic acid I]", "values": [{"measurement": "effect on tumors when combined with MIT", "setting": "[1]", "value": "no significant effects"}]}
{"compound": "CC[C@]1(O)C[C@H]2CN(CCc3c([nH]c4ccccc34)[C@@](C(=O)OC)(c3cc4c(cc3OC)N(C=O)[C@H]3[C@@](O)(C(=O)OC)[C@H](OC(C)=O)[C@]5(CC)C=CCN6CC[C@]43[C@@H]65)C2)C1", "note": "[VIN, vincristine]", "values": [{"measurement": "effect on tumor volume of chemotherapeutic drug combined with SAE", "setting": "[1]", "value": "no further tumor shrinkage"}, {"measurement": "tumor volume when chemotherapeutic drug used alone", "setting": "[1]", "value": "reduce the tumor volume"}]}
{"compound": "bleomycin", "values": [{"measurement": "BrdU incorporation rate", "setting": "[6]; vs control cells", "value": "greatly reduced"}, {"measurement": "DNA damage repair foci (DDR foci)", "setting": "[6]; γH2AX staining", "value": "significantly increased"}, {"measurement": "positive rate of senescence-associated β-galactosidase (SA-β-Gal) staining", "setting": "[7]", "value": "significant increase"}, {"measurement": "effect on tumor volume of chemotherapeutic drug combined with SAE", "setting": "[1]", "value": "roughly repeat the significant effect"}]}
{"compound": "salvianolic acid J [SAJ]", "values": [{"measurement": "effect on tumors when combined with MIT", "setting": "[1]", "value": "no significant effects"}]}
